What follows are compounds tested on Lox-IMVI melanoma cell line (assay: Lox-IMVI anti-proliferative assay (growth inhibition, Cell Titer-Glo)). Conditions: Homo sapiens; IC50 activity level in the cell-based Lox-IMVI anti-proliferative assay; read-out: Activity.
Assay type: cell-based, human
Outline: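 IC50 values reflect the concentration giving 50% of DMSO-control luminescence after 72 h of treatment, fitted with a four-parameter logistic model. Cells were cultured in RPMI + 10% FBS with compound from 0.5 nM to 10 μM.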

SMILES | IC50 [nM]
NC(=O)[C@H]1CC[C@@H](n2c(Nc3c(Cl)cc(F)cc3Cl)nc3cnc(N[C@H]4CCOC4)nc32)CC1 [Example 243, (1R,4s)-4-(8-(2,6-dichloro-4-fluorophenylamino)-2-((S)-tetrahydrofuran-3-ylamino)-9H-purin-9-yl)cyclohexanecarboxamide] | 500 to 1000
NC(=O)[C@H]1CC[C@@H](n2c(Nc3ccc(Cl)cc3Cl)nc3cnc(NC4COCC4O)nc32)CC1 (stereo partly shown) [Example 191, (1s,4s)-4-(8-(2,4-dichlorophenylamino)-2-(4-hydroxytetrahydrofuran-3-ylamino)-9H-purin-9-yl)cyclohexanecarboxamide] | > 1000
NC(=O)[C@H]1CC[C@@H](n2c(Nc3c(F)cc(Cl)cc3Cl)nc3cnc(N[C@H]4C[C@@H](O)C4)nc32)CC1 [Example 324, (1s,4s)-4-(8-(2,4-dichloro-6-fluorophenylamino)-2-((1s,3s)-3-hydroxycyclobutylamino)-9H-purin-9-yl)cyclohexanecarboxamide] | > 1000
NC(=O)[C@H]1CC[C@@H](n2c(Nc3c(Cl)cc(OC(F)(F)F)cc3Cl)nc3cnc(NC4CCOCC4)nc32)CC1 [Example 365, (1s,4s)-4-(8-(2,6-dichloro-4-(trifluoromethoxy)phenylamino)-2-(tetrahydro-2H-pyran-4-ylamino)-9H-purin-9-yl)cyclohexanecarboxamide] | < 250
N#Cc1cc(F)c(Nc2nc3cnc(NC4CCC4)nc3n2[C@H]2CC[C@@H](C(N)=O)CC2)c(F)c1 [Example 368, (1s,4s)-4-(8-(4-cyano-2,6-difluorophenylamino)-2-(cyclobutylamino)-9H-purin-9-yl)cyclohexanecarboxamide] | 500 to 1000
NC(=O)[C@H]1CC[C@@H](n2c(Nc3c(Cl)cc(Cl)cc3Cl)nc3cnc(NCC4CCC4)nc32)CC1 [Example 110, (1s,4s)-4-(2-(cyclobutylmethylamino)-8-(2,4,6-trichlorophenylamino)-9H-purin-9-yl)cyclohexanecarboxamide] | 500 to 1000
NC(=O)[C@H]1CC[C@@H](n2c(Nc3c(Cl)cc(Cl)cc3Cl)nc3cnc(N[C@H]4CCOC[C@@H]4F)nc32)CC1 [Example 246, (1R,4s)-4-(2-((3R,4S)-3-fluorotetrahydro-2H-pyran-4-ylamino)-8-(2,4,6-trichlorophenylamino)-9H-purin-9-yl)cyclohexanecarboxamide] | 500 to 1000
NC(=O)[C@H]1CC[C@@H](n2c(Nc3c(F)cc(Cl)cc3F)nc3cnc(N[C@H]4CC[C@H](O)C4)nc32)CC1 [Example 329, (1R,4s)-4-(8-(4-chloro-2,6-difluorophenylamino)-2-((1S,3S)-3-hydroxycyclopentylamino)-9H-purin-9-yl)cyclohexanecarboxamide] | 500 to 1000
NC(=O)[C@H]1CC[C@@H](n2c(Nc3c(F)cc(F)cc3F)nc3cnc(N[C@@H]4CC[C@H](O)C4)nc32)CC1 [Example 332, (1S,4s)-4-(2-((1R,3S)-3-hydroxycyclopentylamino)-8-(2,4,6-trifluorophenylamino)-9H-purin-9-yl)cyclohexanecarboxamide] | > 1000
NC(=O)[C@H]1CC[C@@H](n2c(Nc3c(Cl)cc(Cl)cc3Cl)nc3cnc(NC4CC5(COC5)C4)nc32)CC1 [Example 177, (1s,4s)-4-(2-(2-oxaspiro[3.3]heptan-6-ylamino)-8-(2,4,6-trichlorophenylamino)-9H-purin-9-yl)cyclohexanecarboxamide] | 250 to 500
NC(=O)[C@H]1CC[C@@H](n2c(Nc3c(Cl)cc(F)cc3Cl)nc3cnc(N[C@H]4CCC[C@@H](O)C4)nc32)CC1 [Example 374, (1R,4s)-4-(8-(2,6-dichloro-4-fluorophenylamino)-2-((1S,3R)-3-hydroxycyclohexylamino)-9H-purin-9-yl)cyclohexanecarboxamide] | > 1000
Cc1cccc(F)c1Nc1nc2cnc(NC3CCOCC3)nc2n1[C@H]1CC[C@@H](C(N)=O)CC1 [Example 63, (1s,4s)-4-(8-(2-fluoro-6-methylphenylamino)-2-(tetrahydro-2H-pyran-4-ylamino)-9H-purin-9-yl)cyclohexanecarboxamide] | > 1000
NC(=O)[C@H]1CC[C@@H](n2c(Nc3c(F)cc(F)cc3F)nc3cnc(NC4COC4)nc32)CC1 [Example 55, (1s,4s)-4-(2-(oxetan-3-ylamino)-8-(2,4,6-trifluorophenylamino)-9H-purin-9-yl)cyclohexanecarboxamide] | > 1000
NC(=O)[C@H]1CC[C@@H](n2c(Nc3ccc(Cl)cc3Cl)nc3cnc(N[C@H]4COC[C@@H]4O)nc32)CC1 [Example 319, (1R,4s)-4-(8-(2,4-dichlorophenylamino)-2-((3S,4R)-4-hydroxytetrahydrofuran-3-ylamino)-9H-purin-9-yl)cyclohexanecarboxamide] | > 1000

Same assay, conditions: Homo sapiens; Lox-IMVI anti-proliferative assay, IC50 activity level; read-out: Activity

SMILES | IC50 [nM]
C[C@@H](CO)Nc1ncc2nc(Nc3c(F)cc(C#N)cc3Cl)n([C@H]3CC[C@@](C)(C(N)=O)CC3)c2n1 [Example 552, (1R,4s)-4-(8-(2-chloro-4-cyano-6-fluorophenylamino)-2-((S)-1-hydroxypropan-2-ylamino)-9H-purin-9-yl)-1-methylcyclohexanecarboxamide] | < 250
NC(=O)[C@H]1CC[C@@H](n2c(Nc3c(Cl)cc(F)cc3Cl)nc3cnc(N[C@@H]4CCC[C@@H](O)C4)nc32)CC1 [Example 423, (1S,4s)-4-(8-(2,6-dichloro-4-fluorophenylamino)-2-((1R,3R)-3-hydroxycyclohexylamino)-9H-purin-9-yl)cyclohexanecarboxamide] | 500 to 1000
NC(=O)[C@H]1CC[C@@H](n2c(Nc3c(Cl)cccc3Cl)nc3cnc(N[C@@H]4CCCC[C@H](O)C4)nc32)CC1 [Example 435, (1S,4s)-4-(8-(2,6-dichlorophenylamino)-2-((1R,3S)-3-hydroxycycloheptylamino)-9H-purin-9-yl)cyclohexanecarboxamide] | > 1000
CC(C)Nc1ncc2nc(Nc3c(F)cc(C#N)cc3F)n([C@H]3CC[C@@H](C(N)=O)CC3)c2n1 [Example 441, (1s,4s)-4-(8-(4-cyano-2,6-difluorophenylamino)-2-(isopropylamino)-9H-purin-9-yl)cyclohexanecarboxamide] | 500 to 1000
NC(=O)[C@H]1CC[C@@H](n2c(Nc3c(F)cc(Cl)cc3Cl)nc3cnc(N[C@H]4CCCC[C@H]4O)nc32)CC1 [Example 513, (1R,4s)-4-(8-(2,4-dichloro-6-fluorophenylamino)-2-((1S,2R)-2-hydroxycyclohexylamino)-9H-purin-9-yl)cyclohexanecarboxamide] | > 1000
C[C@@H](CO)Nc1ncc2nc(Nc3c(Cl)cc(C(F)(F)F)cc3Cl)n([C@H]3CC[C@](C)(C(N)=O)CC3)c2n1 [Example 480, (1S,4r)-4-(8-(2,6-dichloro-4-(trifluoromethyl)phenylamino)-2-((S)-1-hydroxypropan-2-ylamino)-9H-purin-9-yl)-1-methylcyclohexanecarboxamide] | > 1000
COC(=O)N1CCCC(Nc2ncc3nc(Nc4c(F)cc(F)cc4F)n([C@H]4CC[C@@H](C(N)=O)CC4)c3n2)C1 (stereo partly drawn) [Example 403, (R)-methyl 3-(9-((1s,4S)-4-carbamoylcyclohexyl)-8-(2,4,6-tnfluorophenylamino)-9H-purin-2-ylamino)piperidine-1-carboxylate] | > 1000

Same assay, conditions: Homo sapiens; Lox-IMVI melanoma cell line, anti-proliferative assay; read-out: Activity (IC50 activity level)

SMILES | IC50 [nM]
CC(C)N1CCC[C@@H](Nc2ncc3nc(Nc4c(F)cc(Cl)cc4F)n([C@H]4CC[C@@H](C(N)=O)CC4)c3n2)C1 [Example 740, (1S,4s)-4-(8-(4-chloro-2,6-difluorophenylamino)-2-((R)-1-isopropylpiperidin-3-ylamino)-9H-purin-9-yl)cyclohexanecarboxamide] | > 1000
N#Cc1cc(F)c(Nc2nc3cnc(N[C@@H]4CCCN(c5ccccc5)C4)nc3n2[C@H]2CC[C@@H](C(N)=O)CC2)c(F)c1 [Example 745, (1S,4s)-4-(8-(4-cyano-2,6-difluorophenylamino)-2-((R)-1-phenylpiperidin-3-ylamino)-9H-purin-9-yl)cyclohexanecarboxamide] | > 1000
C[C@@H]1COCC[C@H]1Nc1ncc2nc(Nc3c(F)cc(F)cc3Cl)n([C@H]3CC[C@@H](C(N)=O)CC3)c2n1 [Example 723, (1S,4s)-4-(8-(2-chloro-4,6-difluorophenylamino)-2-((3S,4R)-3-methyltetrahydro-2H-pyran-4-ylamino)-9H-purin-9-yl)cyclohexanecarboxamide] | < 250
CC(=O)N1CCC[C@@H](Nc2ncc3nc(Nc4c(F)cc(Cl)cc4F)n([C@H]4CC[C@@H](C(N)=O)CC4)c3n2)C1 [Example 713, (1S,4s)-4-(2-((R)-1-acetylpiperidin-3-ylamino)-8-(4-chloro-2,6-difluorophenylamino)-9H-purin-9-yl)cyclohexanecarboxamide] | > 1000
C[C@]1(C(N)=O)CC[C@@H](n2c(Nc3c(Cl)cc(F)cc3Cl)nc3cnc(N[C@H]4CCC[C@H](O)C4)nc32)CC1 [Example 613, (1R,4s)-4-(8-(2,6-dichloro-4-fluorophenylamino)-2-((1S,3S)-3-hydroxycyclohexylamino)-9H-purin-9-yl)-1-methylcyclohexanecarboxamide] | < 250
C[C@]1(C(N)=O)CC[C@@H](n2c(Nc3c(F)cc(Cl)cc3F)nc3cnc(NC4CCC4)nc32)CC1 [Example 608, (1s,4s)-4-(8-(4-chloro-2,6-difluorophenylamino)-2-(cyclobutylamino)-9H-purin-9-yl)-1-methylcyclohexanecarboxamide] | < 250
NC(=O)[C@H]1CC[C@@H](n2c(Nc3c(F)cc(Cl)cc3F)nc3cnc(N[C@@H]4CCCN(Cc5ccccc5)C4)nc32)CC1 [Example 757, (1S,4s)-4-(2-((R)-1-benzylpiperidin-3-ylamino)-8-(4-chloro-2,6-difluorophenylamino)-9H-purin-9-yl)cyclohexanecarboxamide] | > 1000

Source: patent publication US11590139B2, “Substituted aminopurine compounds, compositions thereof, and methods of treatment therewith” (Signal Pharmaceuticals, LLC, priority 2014, dated 2023)
